The record followed here is ChEMBL document CHEMBL1201862, “PubChem BioAssay data set” (2004).

Test in all cases: DTP human tumour cell line panel, 48 h
The test system of experiment [1] is UACC-257.
For experiment [2], the system named is OVCAR-4.
In experiment [3] the test system is SF-539.
Experiment [4] relates to SW-620.
The subject of experiment [5] is KM12.
Experiment [6] deals with SNB-19.
The subject of experiment [7] is SF-295.
In experiment [8] the test system is 786-0.
The subject of experiment [9] is DU-145.
In experiment [10] the test system is HOP-92.
For experiment [11], the system named is CCRF-CEM.
Experiment [12] concerns SNB-75.
Experiment [13] has as its system LOX IMVI.
In experiment [14] the test system is ACHN.
Experiment [15] has as its system NCI/ADR-RES.
Experiment [16] deals with MDA-N.
For experiment [17], the system named is OVCAR-5.
Experiment [18] has as its system HCC 2998.
In experiment [19] the test system is SK-MEL-2.
Experiment [20] deals with RXF 393.

Molecules are shown by their SMILES.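 Growth conditions: 96-well plates. Treatment: test compound, 48 hours, 5 concentrations. Analysis: linear interpolation between bracketing concentrations; unreached endpoints set to highest concentration. Abbreviation: GI50, concentration required for 50% inhibition of growth.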 The source made the active and inactive calls. No stated cut-off is given here; in the data, active = GI50 up to about 1.1 µM and inactive = higher. Some results are limits rather than exact numbers.

By GI50 is commonly meant the concentration at which growth is held to half of that of the control. Take `C=CCOc1cc(NC(=S)c2ccoc2C)ccc1OC`: the GI50 in experiment [1], in experiment [2], in [3], in experiment [4], in experiment [5] and in experiment [6] was > 100 µM (inactive) each time. In addition, the GI50 in experiment [7] is > 100 µM (inactive); in experiment [8], > 100 µM (inactive); in experiment [9], > 100 µM (inactive); in [10] it was 27.9 µM (inactive); in [11] it was > 100 µM (inactive); in experiment [12], 24.1 µM (inactive). Moreover, the GI50 in [13], in experiment [14], in [15], in [16], in [17] and in experiment [18] was > 100 µM (inactive) in each case. In addition, the GI50 in experiment [19] was > 100 µM (inactive).
Take `O=C1C=Cc2c(Br)sc(Br)c21`: the GI50 in experiment [1] was 26.6 µM (inactive); in experiment [3], 59.3 µM (inactive); in experiment [20] it was 24.3 µM (inactive); in experiment [4], 18 µM (inactive); in experiment [5], 37.4 µM (inactive); in [6], > 100 µM (inactive). Also, the GI50 is > 100 µM (inactive) in experiment [7]; 34.9 µM (inactive) in [8]; 43.8 µM (inactive) in experiment [9]; 24.7 µM (inactive) in experiment [10]; 2.64 µM (inactive) in [11]; 90.4 µM (inactive) in [12]. Moreover, the GI50 is 20.5 µM (inactive) in [13]; 24.7 µM (inactive) in [14]; 36.1 µM (inactive) in experiment [15]; 30.1 µM (inactive) in experiment [16]; 35.6 µM (inactive) in experiment [17]; 15.2 µM (inactive) in experiment [18]. For the same molecule, the GI50 in [19] is 26.9 µM (inactive).
Consider `CC(=O)Nc1ccc(NC(=O)CC(=O)Nc2ccc(NC(C)=O)cc2)cc1`, for which the GI50 in experiment [1], in experiment [2], in experiment [3], in [4], in experiment [5] and in experiment [6] was > 100 µM (inactive) throughout. The GI50 in experiment [7], in experiment [8], in [9], in [10], in experiment [11] and in [13] was > 100 µM (inactive) each time. Besides, the GI50 was > 100 µM (inactive) in experiment [14], > 100 µM (inactive) in experiment [15], > 100 µM (inactive) in [16] and 19.4 µM (inactive) in experiment [18].
`CC(=O)NC1C(OC(C)C(=O)NC(C)C(=O)NC(CCC(=O)NCCCCCNc2ccc([N+](=O)[O-])c3[nH]c4ccccc4c(=O)c23)C(N)=O)C(O)C(CO)OC1(C)OCc1ccccc1` (stereo not given): the GI50 in experiment [1] is > 100 µM (inactive); in experiment [2] it was > 100 µM (inactive); in [3] it was 64.1 µM (inactive); in [20] it was 87.1 µM (inactive); in experiment [4], 67.9 µM (inactive); in experiment [5], 79.3 µM (inactive). Moreover, the GI50 in experiment [6] is > 100 µM (inactive); in [7] it was > 100 µM (inactive); in [8], 38.7 µM (inactive); in experiment [9], 64.6 µM (inactive); in experiment [11], > 100 µM (inactive); in experiment [12], > 100 µM (inactive). For the same molecule, the GI50 in experiment [13], in [14], in [15], in experiment [16], in experiment [17] and in experiment [18] was > 100 µM (inactive) throughout. For the same molecule, the GI50 in [19] was > 100 µM (inactive).
Consider `CCn1ncc2c(=O)n3ncn(-c4ccc(Br)cc4)c3nc21`, for which the GI50 in experiment [1], in experiment [2], in experiment [20], in experiment [4], in experiment [5] and in [6] was > 100 µM (inactive) throughout. The GI50 in [7], in [8], in experiment [9], in experiment [11], in experiment [12] and in experiment [14] was > 100 µM (inactive) throughout. The GI50 in [15], in experiment [16], in [17], in [18] and in experiment [19] was > 100 µM (inactive) in each case.
Turning to `O=C(NC(CCCCN1C(=O)c2ccccc2C1=O)P(=O)(Oc1ccccc1)Oc1ccccc1)OCc1ccccc1` (stereo not given), the GI50 in [1], in experiment [3], in experiment [20], in experiment [4], in [5] and in [6] was > 100 µM (inactive) in each case. Moreover, the GI50 in experiment [7] was > 100 µM (inactive); in experiment [8], > 100 µM (inactive); in experiment [9], > 100 µM (inactive); in experiment [10] it was > 100 µM (inactive); in experiment [12], 0.01 µM (active); in experiment [14], > 100 µM (inactive). In addition, the GI50 in experiment [15], in experiment [16], in experiment [17], in experiment [18] and in experiment [19] was > 100 µM (inactive) in each case.
As for `O=c1[nH]nc(Cc2ccc([N+](=O)[O-])cc2)[nH]1`, the GI50 in experiment [1], in [2], in experiment [3], in experiment [20], in experiment [4] and in experiment [5] was > 100 µM (inactive) in each case. Besides, the GI50 in experiment [6], in experiment [7], in [8], in experiment [9], in experiment [11] and in [12] was > 100 µM (inactive) in each case. Further, the GI50 in [13], in experiment [14], in [15], in experiment [16], in experiment [17] and in experiment [18] was > 100 µM (inactive) each time. In addition, the GI50 in [19] was > 100 µM (inactive).
`O=C1CC=C2C3CC4N(CCC45c4ccccc4N1C25)C/C3=C\CO` (stereo not given): the GI50 in [1], in experiment [2], in experiment [3], in experiment [4], in experiment [5] and in [6] was > 100 µM (inactive) each time. The GI50 in experiment [7], in experiment [8], in experiment [9], in experiment [10], in experiment [11] and in [12] was > 100 µM (inactive) throughout. In addition, the GI50 in experiment [13], in experiment [14], in experiment [15], in experiment [16], in experiment [17] and in experiment [18] was > 100 µM (inactive) throughout. Also, the GI50 in experiment [19] was > 100 µM (inactive).
